How the values were obtained:
[1] = molecular target: Excitatory amino acid transporter 1 (Homo sapiens) (UniProt P43003); experiment: Substrate activity at human EAAT1 expressed in HEK293 cells by FLIPR membrane potential assay; type: functional, cell-based
[2] = molecular target: Excitatory amino acid transporter 1 (Homo sapiens) (UniProt P43003); experiment: Substrate activity at human EAAT1 expressed in HEK293 cells relative to glutamate by FLIPR membrane potential assay; type: functional, cell-based
[3] = molecular target: Excitatory amino acid transporter 1 (Homo sapiens) (UniProt P43003); experiment: Substrate activity at human EAAT1 expressed in HEK293 cells at 1000 uM relative to glutamate by FLIPR membrane potential assay; type: functional, cell-based
[4] = molecular target: T1, Excitatory amino acid transporter 3 (Homo sapiens) (UniProt P43005); experiment: Substrate activity at human EAAT3 expressed in HEK293 cells at 1000 uM relative to glutamate by FLIPR membrane potential assay; type: functional, cell-based
T1 sequence (whole entry): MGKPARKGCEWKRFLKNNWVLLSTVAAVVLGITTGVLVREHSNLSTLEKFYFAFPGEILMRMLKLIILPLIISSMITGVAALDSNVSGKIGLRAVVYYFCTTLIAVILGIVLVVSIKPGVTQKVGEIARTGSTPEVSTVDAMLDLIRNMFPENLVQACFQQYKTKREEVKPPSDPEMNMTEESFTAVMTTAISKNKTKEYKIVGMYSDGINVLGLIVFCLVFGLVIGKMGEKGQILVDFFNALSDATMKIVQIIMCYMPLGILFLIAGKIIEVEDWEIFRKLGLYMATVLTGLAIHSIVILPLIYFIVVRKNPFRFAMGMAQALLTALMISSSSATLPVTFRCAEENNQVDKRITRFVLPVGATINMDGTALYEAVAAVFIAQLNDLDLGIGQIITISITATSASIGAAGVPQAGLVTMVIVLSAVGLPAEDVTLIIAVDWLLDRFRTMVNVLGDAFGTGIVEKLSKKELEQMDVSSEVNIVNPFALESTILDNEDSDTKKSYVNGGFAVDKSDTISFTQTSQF

[5] = molecular target: T1, Excitatory amino acid transporter 3 (Homo sapiens); experiment: Substrate activity at human EAAT3 expressed in HEK293 cells by FLIPR membrane potential assay; type: functional, cell-based
[6] = molecular target: Excitatory amino acid transporter 2 (Homo sapiens) (UniProt P43004); settings: HEK293
Excitatory amino acid transporter 2 (Homo sapiens), sequence (P43004 whole entry): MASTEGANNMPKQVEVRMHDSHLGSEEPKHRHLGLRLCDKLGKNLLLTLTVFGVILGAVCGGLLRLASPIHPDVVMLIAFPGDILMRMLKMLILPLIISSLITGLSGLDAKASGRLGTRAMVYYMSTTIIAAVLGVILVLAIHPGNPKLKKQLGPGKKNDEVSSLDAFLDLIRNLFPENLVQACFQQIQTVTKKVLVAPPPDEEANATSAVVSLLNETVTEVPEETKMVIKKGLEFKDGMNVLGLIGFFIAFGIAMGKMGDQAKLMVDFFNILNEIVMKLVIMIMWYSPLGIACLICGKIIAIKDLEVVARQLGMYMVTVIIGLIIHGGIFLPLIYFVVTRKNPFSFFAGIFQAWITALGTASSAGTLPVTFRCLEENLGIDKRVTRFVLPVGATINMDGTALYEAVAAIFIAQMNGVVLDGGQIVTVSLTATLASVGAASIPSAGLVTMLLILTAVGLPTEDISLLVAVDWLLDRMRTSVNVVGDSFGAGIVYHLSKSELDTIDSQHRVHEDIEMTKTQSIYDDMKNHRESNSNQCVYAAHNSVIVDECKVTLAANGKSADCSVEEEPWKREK
Description: Substrate activity at human EAAT2 expressed in HEK293 cells by FLIPR membrane potential assay

Excitatory amino acid transporter 1 (Homo sapiens), sequence (P43003 whole entry): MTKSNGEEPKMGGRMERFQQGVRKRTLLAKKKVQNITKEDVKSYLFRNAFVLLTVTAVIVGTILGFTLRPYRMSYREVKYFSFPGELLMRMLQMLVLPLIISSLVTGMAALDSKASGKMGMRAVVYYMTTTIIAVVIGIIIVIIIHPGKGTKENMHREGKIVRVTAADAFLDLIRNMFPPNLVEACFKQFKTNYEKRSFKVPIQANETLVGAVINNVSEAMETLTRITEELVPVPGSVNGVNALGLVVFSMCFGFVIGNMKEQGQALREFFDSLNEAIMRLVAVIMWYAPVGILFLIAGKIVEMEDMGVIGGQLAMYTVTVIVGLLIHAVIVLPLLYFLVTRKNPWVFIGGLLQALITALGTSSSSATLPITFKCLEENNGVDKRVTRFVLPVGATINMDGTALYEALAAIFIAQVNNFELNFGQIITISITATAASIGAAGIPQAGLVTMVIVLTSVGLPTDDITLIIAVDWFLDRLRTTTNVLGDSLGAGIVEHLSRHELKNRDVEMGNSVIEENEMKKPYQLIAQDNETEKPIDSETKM

Row | pKm [1] | Activity [2] [%] | Activity [3] [%] | Activity [4] [%] | pKm [5] | pKm [6] | Compound
1 | 4 | 94 |  |  |  |  | N[C@H](C(=O)O)[C@@H]1CC[C@H]1C(=O)O
2 |  |  | 72 | 48 |  |  | N[C@H](C(=O)O)[C@H]1CC[C@@H]1C(=O)O
3 | 5.1 |  |  |  | 5 | 4.7 | N[C@@H](CCC(=O)O)C(=O)O

Reference: ChEMBL document CHEMBL1137310, “Stereoselective chemoenzymatic synthesis of the four stereoisomers of l-2-(2-carboxycyclobutyl)glycine and pharmacological characterization at human excitatory amino acid transporter subtypes 1, 2, and 3” (J Med Chem, 2006)
